Source: publication PMC10275055, “Preventing recurrence in Sonic Hedgehog Subgroup Medulloblastoma using the OLIG2 inhibitor CT-179” (Research Square, 2023)

Tests used:
UW228 MB cell line = assay: Cell viability, 7 days treatment, UW228; assay type: cell-based; conditions: Homo sapiens, 168 h; UW228, 7 days
Method: Cell proliferation was determined by a CellTiter 96® Non-Radioactive Cell Proliferation Assay (Promega) kit. Absorbance at 490 nm was measured on a Biotek PowerWave (Biotek, USA) plate scanner to obtain raw data. Average absorbance from triplicate wells were plotted against concentration using GraphPad Prism software v.7.0 (GraphPad software). At the indicated time points, cells were stained using FITC-conjugated Annexin V and Annexin V binding buffer (BD Pharmingen™) according to the manufacturer’s instructions. Annexin V or propidium iodide (PI)-positive cells were analyzed using a Fortessa 5 Flow Cytometer (Becton Dickinson) and data was analyzed using FlowJo® software (Tree Star).

R403 and R902 MBOs = assay: MB explant organoids (MBOs), cleaved caspase-3 staining; assay type: cell-based, human; conditions: 1 μM, 48 hours, CT-179 alone
Source text: MB cell lines Daoy, UW228, and D283 were obtained from the American Type Culture Collection (ATCC) and cultured in RPMI supplemented with 1% Penicillin-Streptomycin, 1% GlutaMax-I CTS (Gibco) and 10% fetal bovine serum (FBS) (Gibco). MB002, D425 and PER547 primary cell lines were kindly provided by Dr. Tobias Schoep (Telethon Kids Institute, WA). Med-2312 PDX, Neo-113 PDX, Med-2112 PDX, Med-113 PDX and Med-813 PDX were filter tissues purchased from the Olson Laboratory (https://research.fhcrc.org/olson/en/btrl.html). Cell lines derived from the corresponding PDX tissues were labelled as primary cell lines. MB-R201 PDX is a MB PDX model generated and established in our laboratory. MB-R203 is a primary MB cell line. Primary cell lines were derived from MB patient specimens and cultured either in serum-free media grown as spheres or on matrigel. The serum-free media was prepared as previously described. Fresh surgically resected MB tissues were obtained from Queensland Children’s Tumor Bank. MB explant organoids (MBOs), R403 and R901, were generated by microdissection under a stereomicroscope (Zeiss) within a laminar flow biosafety cabinet. The MBOs were cultured in glioblastoma organoid (GBO) medium modified based on Jacob et al.. All cell lines were incubated at 37 °C under 5% CO2/95% humidified air atmosphere. […]

Compound: Cc1cc(NCCCN(C)C)nc(NC(=O)Nc2ccc(Cl)c(Cl)c2)n1 [CT-179]
- IC50 (UW228 MB cell line): 285 nM
- cell death, cleaved caspase-3 staining (R403 and R902 MBOs): significant cell death
